In patent publication US4175081A, “5-Substituted thiadiazole ureas” (priority 1977, dated 1979):

How the values were obtained:
Test in all cases: Post-emergence herbicide test
Bean (BN) = format: in vivo, Phaseolus vulgaris var. Black Valentine; conditions: Phaseolus vulgaris, post-emergence, 336 h; 4 lb/acre; two weeks after treatment
Summary of the method: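 Bean seedlings (Phaseolus vulgaris var. Black Valentine) were grown in potting soil in 3' pots until the primary leaves expanded. They were then sprayed under a hood with a removable belt and fixed nozzle, using 50 ml formulations. Afterward they were returned to the greenhouse and watered only by sub-irrigation. Percent control was judged visually two weeks after treatment.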

Barnyard grass (BG) = format: in vivo; conditions: Echinochloa crus-galli, 336 h, 4 lb/acre, two weeks after treatment
Summary of the method: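 Greenhouse pot-grown barnyard grass seedlings sprayed post-emergence at 8 lbs active compound per acre (some at 4 lbs/acre) in 38 gallons per acre, then sub-irrigated. Injury or control rated visually two weeks after treatment.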

Johnson grass (JG) = format: in vivo, Sorgum helepense; conditions: Sorghum halepense, 336 h, 4 lb/acre, two weeks after treatment
Summary of the method: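 Visual injury or control scores taken 2 weeks after a post-emergence spray of pot-grown plants. Application was 8 lbs/acre (or 4 lbs/acre) in 38 gal/acre. Plants were held in the greenhouse with sub-irrigation only.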

Turnip (TP) = format: in vivo, Brassica sp.; conditions: Brassica rapa, post-emergence, 336 h, two weeks after treatment; for pest or weed control at 4483.4 g/ha: 4 lb/acre
Summary of the method: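 A greenhouse post-emergence herbicide test on turnip. Seeds were sown on the surface of potting soil in 3' plastic pots, lightly covered with screened soil and watered from below. Planting was timed so seedlings had 1 or 2 true leaves above the cotyledons at spraying, done in a hood with a fixed nozzle. Control or injury was scored by eye after two weeks.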

Crabgrass (CG) = format: in vivo, Digitaria sanquinalis; conditions: Digitaria sanguinalis, post-emergence, 336 h; 4 lb/acre; two weeks after treatment
Summary of the method: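 Crabgrass (Digitaria sanquinalis) was surface seeded individually in 3' plastic pots of potting soil, covered with screened soil, and watered by sub-irrigation in greenhouse trays. Planting was staggered so seedlings reached the target stage together. Post-emergence sprays were applied in a hood with a removable belt and fixed nozzle, and control was visually rated two weeks after treatment.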

Cotton (CT) = format: in vivo, Gossypium hirsutum var. DPL smooth leaf; conditions: Gossypium hirsutum, post-emergence, 336 h; 4 lb/acre; two weeks after treatment
Summary of the method: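 This greenhouse post-emergence test measured how well spray treatments controlled cotton. Seedlings of Gossypium hirsutum var. DPL smooth leaf, with expanded cotyledons and a first true leaf 1' in length, were sprayed with 50 ml formulations in a belt-fed spray hood. They were then returned to the greenhouse and watered only by sub-irrigation. Injury was scored visually as % control after two weeks.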

[1] = test system: Yellow foxtail grass (YF); format: in vivo, Setaria glauca; conditions: Setaria, 336 h, 4 lb/acre, two weeks after treatment
Method: Yellow foxtail grass (YF)--Setaria glauca
All crop and weed species were planted individually in 3' plastic pots containing potting soil. Four seeds each of corn, cotton, and snapbeans were seeded to a depth equal to the diameter of the seed. All other species were surface seeded and sprinkled with screened soil in an amount sufficient to cover the seed. Immediately after planting, all pots were watered by sub-irrigation in greenhouse trays. Pots for the pre-emergence phase were seeded one day before treatment.
Planting dates for the post-emergence phase were varied so that all seedlings would reach the desired stage of development simultaneously. The proper stage of seedling development for treatment in the post-emergence phase is as follows:
Compounds were tested at rates of application equivalent to 8 lbs. of actual compound per acre in a spray volume of 38 gallons per acre. Spray hood constants required to deliver the above volume are as follows:
Formulations for spray applications were prepared in 50 ml volumes with the following three components:
Formulations for the 4 lbs/acre rate were prepared by adjusting the amount of active ingredient accordingly.
Spray applications were made in a hood containing a removable belt and fixed spray nozzle. For passage through the spray hood, one pot of each specie (pre-emergence phase) was placed on the rear half of the flat. Treatments were removed to the greenhouse after spraying. Watering during the observation period was done only by sub-irrigation.
Two weeks after treatment, pre- and post-emergence injury or control was visually rated, and the results were as shown in the following tables. Pre-emergence data are provided in TABLE III and post-emergence data are provided in TABLE IV, for compounds having the formula illustrated in TABLE I. Correspondingly, pre-emergence and post-emergence data, respectively, are set forth in TABLES V AND VI, for compounds having the formula illustrated in TABLE II.

Corn (CN) = format: in vivo; conditions: Zea mays, 336 h, 4 lb/acre, two weeks after treatment
Summary of the method: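 Greenhouse seedlings grown in potting soil and sprayed post-emergence at 8 lbs compound/acre (formulations also made for 4 lbs/acre) in 38 gallons/acre spray volume. Watering by sub-irrigation only. Injury or control rated visually two weeks after treatment.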

Amaranth pigweed (PW) = format: in vivo, Amaranthus retroflexus; conditions: 336 h, 2 lb/acre, two weeks after treatment
Summary of the method: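 Visual injury or control ratings were made two weeks after spraying, with greenhouse watering by sub-irrigation only. Treatment was post-emergence, when pigweed seedlings had 1 or 2 true leaves, at 8 lbs active compound per acre (4 lbs/acre formulations also made) in a 38 gallons-per-acre spray volume.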

| SMILES | pest or weed control at 4483.4 g/ha (Bean (BN)) [%] | pest or weed control at 4483.4 g/ha (Barnyard grass (BG)) [%] | pest or weed control at 4483.4 g/ha (Johnson grass (JG)) [%] | pest or weed control at 4483.4 g/ha (Turnip (TP)) [%] | pest or weed control at 4483.4 g/ha (Crabgrass (CG)) [%] | pest or weed control at 4483.4 g/ha (Cotton (CT)) [%] | pest or weed control at 4483.4 g/ha [1] [%] | pest or weed control at 4483.4 g/ha (Corn (CN)) [%] | pest or weed control at 2241.7 g/ha (Amaranth pigweed (PW)) [%] | pest or weed control at 2241.7 g/ha (Turnip (TP); 2 lb/acre) [%] |
| --- | --- | --- | --- | --- | --- | --- | --- | --- | --- | --- |
| CCC(C)Sc1nnc(NC(=O)NC)s1 (stereo not drawn) [Example 48] | 50 | 40 | 60 | 70 | 70 | 100 | 30 | 30 | – | – |
| C=C(C)CSc1nnc(NC(=O)NC)s1 [Example 49] | 50 | 40 | 40 | 90 | 80 | 100 | 40 | 40 | 100 | 70 |
